Measured values as given in US20080269213A1, “8-Hydroxyquinoline compounds and methods thereof” (Wyeth, priority 2006, published 2008).
Where “and” joins values, the source holds several entries; their conditions need not be identical. Equal entries are not always repeated.

biological target: T1, recombinant human Aggrecanase-2 Agg2-Phe628 (Homo sapiens, UniProt Q9UNA0); experiment: Aggrecanase 2 in vitro enzyme assay (Agg-2 FRET, quenched fluorescent peptide substrate); format: biochemical; design: purified recombinant human Aggrecanase-2 Agg2-Phe628 (MW=41,737); This is a truncated form of full-length human aggrecanase-2; made in house; host or cells: CHO cells; conditions: concentration not given
T1 sequence (Q9UNA0 262-628 limits assumed): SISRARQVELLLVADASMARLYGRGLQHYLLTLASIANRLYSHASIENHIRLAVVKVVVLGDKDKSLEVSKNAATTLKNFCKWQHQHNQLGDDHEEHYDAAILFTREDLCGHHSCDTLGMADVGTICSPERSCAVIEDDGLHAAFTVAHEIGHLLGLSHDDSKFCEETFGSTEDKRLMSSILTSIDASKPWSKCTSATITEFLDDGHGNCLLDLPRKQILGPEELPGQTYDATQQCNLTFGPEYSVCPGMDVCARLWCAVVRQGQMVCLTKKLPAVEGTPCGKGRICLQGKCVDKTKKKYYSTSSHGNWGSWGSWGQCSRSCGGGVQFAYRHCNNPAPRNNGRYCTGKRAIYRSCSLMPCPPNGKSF
Protocol: A continuous assay was used in which the substrate was a synthetic peptide containing a fluorescent group (o-aminobenzyl, Abz), which was quenched by energy transfer to a 2,4-dinitrophenyl group (Dnp). The buffer used in this assay was 50 mM HEPES, pH 7.5, 100 mM NaCl, 5 mM CaCl2, 0.1% CHAPS, 5% glycerol. The source of enzyme was purified recombinant human Aggrecanase-2 Agg2-Phe628 (MW=41,737). This is a truncated form of full-length human aggrecanase-2 that was expressed in CHO cells and purified. The final concentration of Agg2-Phe628 was 0.5 μg/ml. […] It is a synthetic peptide that is designed after a portion of brevican, one of the naturally occurring substrates of Aggrecanase-2, of the sequence Abz-[…]-Dap(Dnp)-KK—NH2 (mass=1740). The concentration of this substrate stock was spectrophotometrically determined using the extinction coefficient at 354 nm of 18,172 M^−1cm^−1. […] The final concentration of substrate in the assay was 25 μM.
Test compounds (in duplicate) were serially diluted from 2 mM to 0.01 μM in 100% DMSO. The total reaction volume was 100 μl. The buffer and enzyme were added first followed by addition of 10× inhibitor from the dilution plate. Enzyme and buffer alone samples were included in order to obtain the maximal rate of substrate cleavage. […] Then substrate was added, mixed and the reaction monitored for 40 min at 30° C. in kinetic mode using λex: 340 nm and % λem: 420 (GeminiXS Molecular Devices).

**Q.** How did the “Agg-2 FRET Median PCT INHIB” value turn out when `CC(C)(C)c1ccc(OCC(=O)NC(c2cccc(F)c2)c2cc(Cl)c3cccnc3c2O)cc1` (centres unmarked) [2-(4-tert-butylphenoxy)-N-[(5-chloro-8-hydroxyquinolin-7-yl)(3-fluorophenyl)methyl]acetamide] was run?
**A.** 43%

**Q.** `Cc1ccc(C(NC(=O)COc2ccccc2)c2cc(Cl)c3cccnc3c2O)c(C)c1` (centres unmarked) [N-[(5-chloro-8-hydroxyquinolin-7-yl)(2,4-dimethylphenyl)methyl]-2-phenoxyacetamide] was tested. Which “Agg-2 FRET Median PCT INHIB” value did it give?
**A.** 60%

**Q.** How did the “Agg-2 FRET Median PCT INHIB” value turn out when `CC(=O)NC(c1ccccc1)c1ccc2cccnc2c1O` (centres unmarked) [N-[(8-hydroxyquinolin-7-yl)(phenyl)methyl]acetamide] was run?
**A.** 50%

**Q.** How did the “Agg-2 FRET Median PCT INHIB” value turn out when `COc1c(C(NC(=O)COc2ccccc2)c2ccccc2Cl)cc(Cl)c2cccnc12` (centres unmarked) [N-[(5-chloro-8-methoxyquinolin-7-yl)(2-chlorophenyl)methyl]-2-phenoxyacetamide] was run?
**A.** 32%

**Q.** With `O=C(COc1ccc(Oc2ccccc2)cc1)NC(c1ccccc1)c1cc(Cl)c2cccnc2c1O` (centres unmarked) [Example 85, N-[(5-chloro-8-hydoxyquinolin-7-yl)(phenyl)methyl]-2-(4-phenoxyphenoxy)acetamide] as the compound, how does the “Agg-2 FRET Median PCT INHIB” value read?
**A.** 50%

**Q.** For `Cc1cc(OCC(=O)NC(c2cccc([N+](=O)[O-])c2)c2cc(Cl)c3cccnc3c2O)ccc1Cl` (centres unmarked) [N-[(5-chloro-8-hydroxyquinolin-7-yl)(3-nitrophenyl)methyl]-2-(4-chloro-3-methylphenoxy)acetamide], which “Agg-2 FRET Median PCT INHIB” value is on record?
**A.** 53%

same assay, conditions: read-out: Agg-2 FRET Median IC50

**Q.** For `O=C(CNCc1ccccc1)NC(c1cccc([N+](=O)[O-])c1)c1cc(Cl)c2cccnc2c1O` (centres unmarked) [Example 64, N^2-benzyl-N^1-[(5-chloro-8-hydroxyquinolin-7-yl)(3-nitrophenyl)methyl]glycinamide], which IC50 is on record?
**A.** 765 nM

**Q.** With `Cc1ccc(C(NC(=O)CNc2cccnc2)c2cc(Cl)c3cccnc3c2O)cc1` (centres unmarked) [Example 22, N^1-[(5-chloro-8-hydroxyquinolin-7-yl)(4-methylphenyl)methyl]-N^2-pyridin-3-ylglycinamide] as the compound, how does the IC50 read?
**A.** 9790 nM

**Q.** With `O=C(COc1ccccc1)NC(c1cccnc1)c1cc(Cl)c2cccnc2c1O` (centres unmarked) [Example 69, N-[(5-chloro-8-hydroxyquinolin-7-yl)(pyridin-3-yl)methyl]-2-phenoxyacetamide] as the compound, how does the IC50 read?
**A.** 1920 nM

**Q.** With `Cc1ccccc1C(NC(=O)COc1ccccc1)c1cc(C)c2cccnc2c1O` (centres unmarked) [N-[(8-hydroxy-5-methylquinolin-7-yl)(2-methylphenyl)methyl]-2-phenoxyacetamide] as the compound, how does the IC50 read?
**A.** 3510 nM

**Q.** Which IC50 does the source give for `O=C(COc1ccccc1)NC(c1ccccc1Cl)c1ccc2cccnc2c1O` (centres unmarked) [N-[(2-chlorophenyl)(8-hydroxyquinolin-7-yl)methyl]-2-phenoxyacetamide] here?
**A.** 2500 nM

**Q.** `O=C(COc1ccccc1)NC(c1cccs1)c1cc(Cl)c2cccnc2c1O` (centres unmarked) [N-[(5-chloro-8-hydroxyquinolin-7-yl)(2-thienyl)methyl]-2-phenoxyacetamide] was tested. Which IC50 did it give?
**A.** 1220 nM

**Q.** How did the IC50 turn out when `O=C(COc1ccccc1)NC(c1cccc(F)c1)c1cc(Cl)c2cccnc2c1O` (centres unmarked) [N-[(5-chloro-8-hydroxyquinolin-7-yl)(3-fluorophenyl)methyl]-2-phenoxyacetamide] was run?
**A.** 624 nM

**Q.** `CN(CC(=O)NC(c1ccccc1Cl)c1cc(Cl)c2cccnc2c1O)Cc1ccccc1` (centres unmarked) [Example 52, N^2-benzyl-N^1-[(5-chloro-8-hydroxyquinolin-7-yl)(2-chlorophenyl)methyl]-N^2-methylglycinamide] was tested. Which IC50 did it give?
**A.** 1310 nM

**Q.** How did the IC50 turn out when `Cc1ccccc1C(NC(=O)COc1ccccc1)c1cc(Br)c2cccnc2c1O` (centres unmarked) [N-[(5-bromo-8-hydroxyquinolin-7-yl)(2-methylphenyl)methyl]-2-phenoxyacetamide] was run?
**A.** 1000 nM

**Q.** For `Cc1ccc(C(NC(=O)COc2ccccc2)c2ccc3cccnc3c2O)cc1` (centres unmarked) [N-[(8-hydroxyquinolin-7-yl)(4-methylphenyl)methyl]-2-phenoxyacetamide], which IC50 is on record?
**A.** 3010 nM

**Q.** How did the IC50 turn out when `COc1ccc(C(NC(=O)COc2ccccc2)c2cc(Cl)c3cccnc3c2O)cc1` (centres unmarked) [N-[(5-chloro-8-hydroxyquinolin-7-yl)(4-methoxyphenyl)methyl]-2-phenoxyacetamide] was run?
**A.** 1120 nM and 1000 nM

**Q.** How did the IC50 turn out when `COc1cc(C(NC(=O)COc2ccccc2)c2cc(Cl)c3cccnc3c2O)ccc1O` (centres unmarked) [N-[(5-chloro-8-hydroxyquinolin-7-yl)(4-hydroxy-3-methoxyphenyl)methyl]-2-phenoxyacetamide] was run?
**A.** 7300 nM

**Q.** How did the IC50 turn out when `O=C(COc1ccccc1)NC(c1ccc(O)cc1Cl)c1cc(Cl)c2cccnc2c1O` (centres unmarked) [N-[(2-chloro-4-hydroxyphenyl)(5-chloro-8-hydroxyquinolin-7-yl)methyl]-2-phenoxyacetamide] was run?
**A.** 1940 nM

**Q.** Which IC50 does the source give for `Cc1cc(C(NC(=O)COc2ccccc2)c2cccc([N+](=O)[O-])c2)c(O)c2ncccc12` (centres unmarked) [Example 46, N-[(8-hydroxy-5-methylquinolin-7-yl)(3-nitrophenyl)methyl]-2-phenoxyacetamide] here?
**A.** 1320 nM

**Q.** `O=C(COc1ccccc1)NC(c1ccc(F)c(Cl)c1)c1cc(Cl)c2cccnc2c1O` (centres unmarked) [N-[(3-chloro-4-fluorophenyl)(5-chloro-8-hydroxyquinolin-7-yl)methyl]-2-phenoxyacetamide] was tested. Which IC50 did it give?
**A.** 1040 nM

**Q.** `COc1ccc(C(NC(=O)COc2cccnc2)c2cc(Cl)c3cccnc3c2O)cc1` (centres unmarked) [N-[(5-chloro-8-hydroxyquinolin-7-yl)(4-methoxyphenyl)methyl]-2-(pyridin-3-yloxy)acetamide] was tested. Which IC50 did it give?
**A.** 2980 nM

**Q.** Which IC50 does the source give for `Cc1ccc(C(NC(=O)CN(C)c2ccccc2)c2cc(Cl)c3cccnc3c2O)cc1` (centres unmarked) [Example 58, N^1-[(5-chloro-8-hydroxyquinolin-7-yl)(4-methylphenyl)methyl]-N^2-methyl-N^2-phenylglycinamide] here?
**A.** 776 nM

**Q.** With `O=C(COc1ccccc1)NC(c1ccc(Cl)c(Cl)c1)c1cc(Cl)c2cccnc2c1O` (centres unmarked) [N-[(5-chloro-8-hydroxyquinolin-7-yl)(3,4-dichlorophenyl)methyl]-2-phenoxyacetamide] as the compound, how does the IC50 read?
**A.** 1360 nM

**Q.** For `COc1ccc(OCC(=O)NC(c2ccc(OC)cc2)c2ccc3cccnc3c2O)cc1` (centres unmarked) [N-[(8-hydroxyquinolin-7-yl)(4-methoxyphenyl)methyl]-2-(4-methoxyphenoxy)acetamide], which IC50 is on record?
**A.** 4510 nM

**Q.** For `O=C(COc1ccccc1)NC(c1cccc(F)c1)c1ccc2cccnc2c1O` (centres unmarked) [N-[(3-fluorophenyl)(8-hydroxyquinolin-7-yl)methyl]-2-phenoxyacetamide], which IC50 is on record?
**A.** 2760 nM

**Q.** Which IC50 does the source give for `Cc1ccccc1C(NC(=O)COc1ccccc1)c1cc([N+](=O)[O-])c2cccnc2c1O` (centres unmarked) [N-[(8-hydroxy-5-nitroquinolin-7-yl)(2-methylphenyl)methyl]-2-phenoxyacetamide] here?
**A.** 854 nM

**Q.** Which IC50 does the source give for `Cc1ccc(C)c(C(NC(=O)COc2ccccc2)c2cc(Cl)c3cccnc3c2O)c1` (centres unmarked) [Example 37, N-[(5-chloro-8-hydroxyquinolin-7-yl)(2,5-dimethylphenyl)methyl]-2-phenoxyacetamide] here?
**A.** 1490 nM

**Q.** For `O=C(COCc1ccccc1)NC(c1cccc(F)c1)c1cc(Cl)c2cccnc2c1O` (centres unmarked) [2-(benzyloxy)-N-[(5-chloro-8-hydroxyquinolin-7-yl)(3-fluorophenyl)methyl]acetamide], which IC50 is on record?
**A.** 828 nM

**Q.** For `Cc1ccc(OCC(=O)NC(c2ccccc2)c2ccc3cccnc3c2O)cc1` (centres unmarked) [N-[(8-hydroxyquinolin-7-yl)(phenyl)methyl]-2-(4-methylphenoxy)acetamide], which IC50 is on record?
**A.** 2470 nM

**Q.** With `O=C(COc1ccccc1)NC(c1ccc([N+](=O)[O-])cc1)c1ccc2cccnc2c1O` (centres unmarked) [N-[(8-hydroxyquinolin-7-yl)(4-nitrophenyl)methyl]-2-phenoxyacetamide] as the compound, how does the IC50 read?
**A.** 2390 nM

**Q.** With `CC(=O)c1ccc(OCC(=O)NC(c2cccc([N+](=O)[O-])c2)c2cc(Cl)c3cccnc3c2O)cc1` (centres unmarked) [2-(4-acetylphenoxy)-N-[(5-chloro-8-hydroxyquinolin-7-yl)(3-nitrophenyl)methyl]acetamide] as the compound, how does the IC50 read?
**A.** 2330 nM

**Q.** For `O=C(CNc1cccnc1)NC(c1cccc([N+](=O)[O-])c1)c1cc(Cl)c2cccnc2c1O` (centres unmarked) [Example 28, N^1-[(5-chloro-8-hydroxyquinolin-7-yl)(3-nitrophenyl)methyl]-N^2-pyridin-3-ylglycinamide], which IC50 is on record?
**A.** 1560 nM

**Q.** `CC(=O)c1ccc(NCC(=O)NC(c2ccc(C)cc2)c2cc(Cl)c3cccnc3c2O)cc1` (centres unmarked) [Example 24, N^2-(4-acetylphenyl)-N^1-[(5-chloro-8-hydroxyquinolin-7-yl)(4-methylphenyl)methyl]glycinamide] was tested. Which IC50 did it give?
**A.** 1120 nM

**Q.** For “N-[(5-chloro-8-hydroxyquinolin-7-yl)(4-methoxyphenyl)methyl]-2-(4-methylphenoxy)acetamide [Example 80]”, which IC50 is on record?
**A.** 774 nM
